Reference: paper PMC8119466, “A screen of FDA-approved drugs identifies inhibitors of protein tyrosine phosphatase 4A3 (PTP4A3 or PRL-3)” (Scientific Reports, 2021)
Structures can show the parent of a compound that is named as a salt.

Columns and labels:
Assay type in all cases: biochemical
Conditions in all cases: FDA-approved drug screen; compared to DMSO
[1] = target: T1, recombinant PRL-2 (Homo sapiens, UniProt Q12974); experiment: In vitro phosphatase assay (DiFMUP hydrolysis), PRL-2;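 further: PRL-2 activity read as DiFMUP hydrolysis after 20 min at room temperature with drug, enzyme first pre-reduced at 4 °C for 20 min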
T1 construct: 6xHis (N, cleaved yes); made in house; host or cells: E. coli One Shot BL21 Star
T1 sequence (Q12974 1-167): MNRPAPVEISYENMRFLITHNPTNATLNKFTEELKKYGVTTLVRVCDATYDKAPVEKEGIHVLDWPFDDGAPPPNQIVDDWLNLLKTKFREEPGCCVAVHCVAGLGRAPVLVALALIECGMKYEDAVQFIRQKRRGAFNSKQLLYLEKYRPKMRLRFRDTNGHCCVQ

[2] = target: T2, recombinant PRL-3 (Homo sapiens, UniProt O75365); experiment: In vitro phosphatase assay (DiFMUP hydrolysis), PRL-3; further: test concentration or dose not given here
T2 construct: 6xHis (N, cleaved yes); made in house; host or cells: E. coli One Shot BL21 Star

[3] = target: T3, recombinant PRL-1 (Homo sapiens, UniProt Q93096); experiment: In vitro phosphatase assay (DiFMUP hydrolysis), PRL-1; further: test concentration or dose not given here
T3 construct: 6xHis (N, cleaved yes); made in house; host or cells: E. coli One Shot BL21 Star
T3 sequence (Q93096 1-173): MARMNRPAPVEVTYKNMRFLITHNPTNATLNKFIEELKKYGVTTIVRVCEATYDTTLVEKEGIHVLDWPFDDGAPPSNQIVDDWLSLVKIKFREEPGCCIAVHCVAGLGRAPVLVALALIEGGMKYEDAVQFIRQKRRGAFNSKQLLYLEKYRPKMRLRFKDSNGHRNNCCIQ

T2 sequence (O75365 whole entry): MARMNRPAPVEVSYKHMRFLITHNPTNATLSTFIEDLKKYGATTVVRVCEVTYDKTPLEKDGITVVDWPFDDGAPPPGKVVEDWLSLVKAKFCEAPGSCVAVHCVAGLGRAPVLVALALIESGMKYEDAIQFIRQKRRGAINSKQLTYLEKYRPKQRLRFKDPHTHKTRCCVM

O=c1[nH]c(=O)n([C@H]2C[C@H](O)[C@@H](CO)O2)cc1I [Idoxuridine]
% Phosphatase Activity (compared to DMSO) PRL-2 [1]: 103%
% Phosphatase Activity (compared to DMSO) PRL-3 [2]: 90%
% Phosphatase Activity (compared to DMSO) PRL-1 [3]: 94%

O=C1C2CC3CC1CC(O)(C3)C2 [Idramantone]
% Phosphatase Activity (compared to DMSO) PRL-2 [1]: 113%
% Phosphatase Activity (compared to DMSO) PRL-3 [2]: 86%
% Phosphatase Activity (compared to DMSO) PRL-1 [3]: 105%

O=P1(NCCCl)OCCCN1CCCl (stereo not drawn) [Ifosfamide]
% Phosphatase Activity (compared to DMSO) PRL-2 [1]: 99%
% Phosphatase Activity (compared to DMSO) PRL-3 [2]: 78%
% Phosphatase Activity (compared to DMSO) PRL-1 [3]: 100%

CNC(=O)[C@H](Cc1c[nH]c2ccccc12)NC(=O)[C@@H](CC(=O)NO)CC(C)C [Ilomastat (GM6001, Galardin)]
% Phosphatase Activity (compared to DMSO) PRL-2 [1]: 80%
% Phosphatase Activity (compared to DMSO) PRL-3 [2]: 91%
% Phosphatase Activity (compared to DMSO) PRL-1 [3]: 94%

COc1cc(C(C)=O)ccc1OCCCN1CCC(c2noc3cc(F)ccc23)CC1 [Iloperidone]
% Phosphatase Activity (compared to DMSO) PRL-2 [1]: 88%
% Phosphatase Activity (compared to DMSO) PRL-3 [2]: 80%
% Phosphatase Activity (compared to DMSO) PRL-1 [3]: 105%

CCOC(=O)[C@H](CCc1ccccc1)N[C@@H](C)C(=O)N1C(=O)N(C)C[C@H]1C(=O)O [Imidapril HCl]
% Phosphatase Activity (compared to DMSO) PRL-2 [1]: 95%
% Phosphatase Activity (compared to DMSO) PRL-3 [2]: 76%
% Phosphatase Activity (compared to DMSO) PRL-1 [3]: 105%

CC(C)Cn1cnc2c(N)nc3ccccc3c21 [Imiquimod]
% Phosphatase Activity (compared to DMSO) PRL-2 [1]: 106%
% Phosphatase Activity (compared to DMSO) PRL-3 [2]: 67%
% Phosphatase Activity (compared to DMSO) PRL-1 [3]: 98%

CCc1cc2c(cc1CC)CC(NC[C@H](O)c1ccc(O)c3[nH]c(=O)ccc13)C2 [Indacaterol Maleate]
% Phosphatase Activity (compared to DMSO) PRL-2 [1]: 100%
% Phosphatase Activity (compared to DMSO) PRL-3 [2]: 95%
% Phosphatase Activity (compared to DMSO) PRL-1 [3]: 95%

CC1Cc2ccccc2N1NC(=O)c1ccc(Cl)c(S(N)(=O)=O)c1 (stereo not drawn) [Indapamide]
% Phosphatase Activity (compared to DMSO) PRL-2 [1]: 105%
% Phosphatase Activity (compared to DMSO) PRL-3 [2]: 117%
% Phosphatase Activity (compared to DMSO) PRL-1 [3]: 98%

COc1ccc2c(c1)c(CC(=O)O)c(C)n2C(=O)c1ccc(Cl)cc1 [Indomethacin]
% Phosphatase Activity (compared to DMSO) PRL-2 [1]: 106%
% Phosphatase Activity (compared to DMSO) PRL-3 [2]: 71%
% Phosphatase Activity (compared to DMSO) PRL-1 [3]: 96%

NC(=O)c1ccc(I)c([N+](=O)[O-])c1 [Iniparib (BSI-201)]
% Phosphatase Activity (compared to DMSO) PRL-2 [1]: 112%
% Phosphatase Activity (compared to DMSO) PRL-3 [2]: 78%
% Phosphatase Activity (compared to DMSO) PRL-1 [3]: 107%

C[C@H](O)C(=O)Nc1c(I)c(C(=O)NC(CO)CO)c(I)c(C(=O)NC(CO)CO)c1I [Iopamidol]
% Phosphatase Activity (compared to DMSO) PRL-2 [1]: 98%
% Phosphatase Activity (compared to DMSO) PRL-3 [2]: 90%
% Phosphatase Activity (compared to DMSO) PRL-1 [3]: 96%

CC(C)[N+]1(C)[C@@H]2CC[C@H]1C[C@@H](OC(=O)C(CO)c1ccccc1)C2 (stereo partly drawn) [Ipratropium Bromide]
% Phosphatase Activity (compared to DMSO) PRL-2 [1]: 93%
% Phosphatase Activity (compared to DMSO) PRL-3 [2]: 83%
% Phosphatase Activity (compared to DMSO) PRL-1 [3]: 103%

CCCCC1=NC2(CCCC2)C(=O)N1Cc1ccc(-c2ccccc2-c2nnn[nH]2)cc1 [Irbesartan]
% Phosphatase Activity (compared to DMSO) PRL-2 [1]: 87%
% Phosphatase Activity (compared to DMSO) PRL-3 [2]: 84%
% Phosphatase Activity (compared to DMSO) PRL-1 [3]: 95%

CCc1c2c(nc3ccc(OC(=O)N4CCC(N5CCCCC5)CC4)cc13)-c1cc3c(c(=O)n1C2)COC(=O)[C@]3(O)CC.Cl.O.O.O [Irinotecan HCl Trihydrate]
% Phosphatase Activity (compared to DMSO) PRL-2 [1]: 4207%
% Phosphatase Activity (compared to DMSO) PRL-3 [2]: 4074%
% Phosphatase Activity (compared to DMSO) PRL-1 [3]: 4597%

CCc1c2c(nc3ccc(OC(=O)N4CCC(N5CCCCC5)CC4)cc13)-c1cc3c(c(=O)n1C2)COC(=O)[C@]3(O)CC [Irinotecan]
% Phosphatase Activity (compared to DMSO) PRL-2 [1]: 5728%
% Phosphatase Activity (compared to DMSO) PRL-3 [2]: 3887%
% Phosphatase Activity (compared to DMSO) PRL-1 [3]: 4706%

Nc1nc(N)nc(-c2cc(Cl)ccc2Cl)n1 [Irsogladine]
% Phosphatase Activity (compared to DMSO) PRL-2 [1]: 106%
% Phosphatase Activity (compared to DMSO) PRL-3 [2]: 81%
% Phosphatase Activity (compared to DMSO) PRL-1 [3]: 84%

Clc1ccc(C(Cn2ccnc2)OCc2c(Cl)cccc2Cl)c(Cl)c1 (stereo not drawn) [Isoconazole nitrate]
% Phosphatase Activity (compared to DMSO) PRL-2 [1]: 110%
% Phosphatase Activity (compared to DMSO) PRL-3 [2]: 89%
% Phosphatase Activity (compared to DMSO) PRL-1 [3]: 112%

CCC(NC(C)C)C(O)c1ccc(O)c(O)c1 (stereo not drawn) [Isoetharine Mesylate]
% Phosphatase Activity (compared to DMSO) PRL-2 [1]: 98%
% Phosphatase Activity (compared to DMSO) PRL-3 [2]: 93%
% Phosphatase Activity (compared to DMSO) PRL-1 [3]: 103%

NNC(=O)c1ccncc1 [Isoniazid]
% Phosphatase Activity (compared to DMSO) PRL-2 [1]: 94%
% Phosphatase Activity (compared to DMSO) PRL-3 [2]: 91%
% Phosphatase Activity (compared to DMSO) PRL-1 [3]: 91%

CC(C)NCC(O)c1ccc(O)c(O)c1.Cl (stereo not drawn) [Isoprenaline HCl]
% Phosphatase Activity (compared to DMSO) PRL-2 [1]: 124%
% Phosphatase Activity (compared to DMSO) PRL-3 [2]: 94%
% Phosphatase Activity (compared to DMSO) PRL-1 [3]: 114%

O=[N+]([O-])O[C@@H]1CO[C@H]2[C@@H]1OC[C@@H]2O [Isosorbide Mononitrate]
% Phosphatase Activity (compared to DMSO) PRL-2 [1]: 85%
% Phosphatase Activity (compared to DMSO) PRL-3 [2]: 81%
% Phosphatase Activity (compared to DMSO) PRL-1 [3]: 91%

CC1=C(/C=C/C(C)=C/C=C/C(C)=C\C(=O)O)C(C)(C)CCC1 [Isotretinoin]
% Phosphatase Activity (compared to DMSO) PRL-2 [1]: 71%
% Phosphatase Activity (compared to DMSO) PRL-3 [2]: 57%
% Phosphatase Activity (compared to DMSO) PRL-1 [3]: 72%

Cc1cc(NC(=O)C2=C(O)c3ccccc3S(=O)(=O)N2C)no1 [Isoxicam]
% Phosphatase Activity (compared to DMSO) PRL-2 [1]: 91%
% Phosphatase Activity (compared to DMSO) PRL-3 [2]: 84%
% Phosphatase Activity (compared to DMSO) PRL-1 [3]: 91%

Cc1ccc(C(=O)N(CCCN)[C@@H](c2nc3cc(Cl)ccc3c(=O)n2Cc2ccccc2)C(C)C)cc1 [Ispinesib (SB-715992)]
% Phosphatase Activity (compared to DMSO) PRL-2 [1]: 108%
% Phosphatase Activity (compared to DMSO) PRL-3 [2]: 80%
% Phosphatase Activity (compared to DMSO) PRL-1 [3]: 103%

COC(=O)C1=C(C)NC(C)=C(C(=O)OC(C)C)C1c1cccc2nonc12 (stereo not drawn) [Isradipine]
% Phosphatase Activity (compared to DMSO) PRL-2 [1]: 74%
% Phosphatase Activity (compared to DMSO) PRL-3 [2]: 71%
% Phosphatase Activity (compared to DMSO) PRL-1 [3]: 94%

COc1ccc(C(=O)NCc2ccc(OCCN(C)C)cc2)cc1OC.Cl [Itopride hydrochloride]
% Phosphatase Activity (compared to DMSO) PRL-2 [1]: 115%
% Phosphatase Activity (compared to DMSO) PRL-3 [2]: 80%
% Phosphatase Activity (compared to DMSO) PRL-1 [3]: 95%

COc1cc2c(cc1OC)CC(=O)N(CCCN(C)C[C@H]1Cc3cc(OC)c(OC)cc31)CC2.Cl [Ivabradine HCl]
% Phosphatase Activity (compared to DMSO) PRL-2 [1]: 113%
% Phosphatase Activity (compared to DMSO) PRL-3 [2]: 71%
% Phosphatase Activity (compared to DMSO) PRL-1 [3]: 108%

CC(C)(C)c1cc(C(C)(C)C)c(NC(=O)c2c[nH]c3ccccc3c2=O)cc1O [Ivacaftor (VX-770)]
% Phosphatase Activity (compared to DMSO) PRL-2 [1]: 87%
% Phosphatase Activity (compared to DMSO) PRL-3 [2]: 77%
% Phosphatase Activity (compared to DMSO) PRL-1 [3]: 95%

CC[C@H](C)[C@H]1O[C@]2(CC[C@@H]1C)C[C@@H]1C[C@@H](C/C=C(\C)[C@@H](O[C@H]3C[C@H](OC)[C@@H](O[C@H]4C[C@H](OC)[C@@H](O)[C@H](C)O4)[C@H](C)O3)[C@@H](C)/C=C/C=C3\CO[C@@H]4[C@H](O)C(C)=C[C@@H](C(=O)O1)[C@]34O)O2 [Ivermectin]
% Phosphatase Activity (compared to DMSO) PRL-2 [1]: 102%
% Phosphatase Activity (compared to DMSO) PRL-3 [2]: 69%
% Phosphatase Activity (compared to DMSO) PRL-1 [3]: 91%
